# Test results as given in patent publication US20210299193A1, “SYNBIOTIC COMPOSITION FOR IMPROVING IMMUNE RESPONSE AND ANTIOXIDANT CAPACITY DURING AGING AND A PROCESS FOR THE PREPARATION THEREOF” (COUNCIL OF SCIENTIFIC & INDUSTRIAL RESEARCH, priority 2018, published 2021).
# Experiments:
# [1] = system: probiotic bacteria (Lactobacillus species); assay: Effect of EGCG on growth of probiotic bacteria (OD 600 nm); assay type: cell-based; conditions: 0.1% EGCG in media, vs control without EGCG
# Excerpt: (§1) FIG. 1. Effect of EGCG on growth of probiotic and pathogenic bacterial species. The growth was monitored by inoculating a 5% inoculum of respective bacterial species into media containing 0.1% of EGCG. Growth was compared to that of control (without EGCG) to determine the influence of EGCG by spectrophotometric method (600 nm). Lactobacillus rhamnosus (LR); Lactobacillus fermentum (LF); Lactobacillus planatarum (LP); Escherichia coli (EC; MTCC 43); Salmonella typhi (ST; MTCC 733); Pseudomonas aeruginosa (PS; MTCC 424); Staphylococcus aureus (SA; MTCC 96); Klebsiella pneumoniae (K; MTCC 109); Shigella flexneri (SF; MTCC 1457); Vibrio cholera (VC; MTCC 3904).
# (§2) To test prebiotic efficacy, the effect of EGCG on growth of probiotic bacteria (Lactobacillus species) and pathogenic bacteria [Escherichia coli (EC); Salmonella typhi (ST); Pseudomonas (PS); Staphylococcus aureus (SA); Klebsiella (K); Shigella flexneri (SF); Vibrio cholera (VC)] was assessed. The probiotic bacteria were isolated, identified and characterized while the pathogenic bacteria were procured from MTCC, Chandigarh.
# splenocytes = assay: Flow cytometric analysis of splenocyte T cell sub-populations and activation status in aging animals; assay type: in vivo, swiss albino mice; conditions: 16 months old mice, oral supplementation 30 days
# Experimental: The probiotic Lactobacillus, EGCG or a combination of the two were orally administered to aged animals for 31 days before sacrificing and subsequent analysis of various immune and oxidative stress associated parameters.
# Effect of synbiotics supplementation on T cells sub-population of aging animals. Animals were fed with respective diets for 31 days following which splenocytes were analyzed by flow cytometry. (A) %CD3+ cells (B) %NK cells and (C) %NKT cells. Bars with different letter indicate significant difference at p<0.05.
# Effect of synbiotics supplementation on activation status of T cells sub-population of aging animals. Animals were fed with respective diets for 31 days following which splenocytes were analyzed by flow cytometry. (A) Activated T cells (B) Activated NK cells and (C) Activated NKT cells. Bars with different letter indicate significant difference at p<0.05.
# The synbiotic composition of EGCG and probiotic Lactobacillus sp was assessed for effects on cellular immune response using aging murine model. Animals (16 months old) were randomized into four groups of six mice each: 1 control group and 3 experimental groups comprising of either only EGCG (PRE), probiotic Lactobacillus sp (PRO) or a combination of both (SYN). All animals were fed on commercially available pelleted mice chow (Golden feeds, New Delhi, India) and water ad libitum. The experimental animal groups were each supplemented with EGCG (@100 mg/kg/animal/day), probiotic Lactobacilli sp (10^8 cfu/ml) or a combination of both above (synbiotic) respectively for 30 consecutive days. At the end of the feeding regimen, the animals were sacrificed for various immunological and antioxidative analysis.
# pathogenic bacteria = assay: Effect of EGCG on growth of pathogenic bacteria (OD 600 nm); assay type: cell-based; conditions: 0.1% EGCG in media, vs control without EGCG
# Excerpt: as §1, §2
compound,measurement,setting,value
"O=C(O[C@@H]1Cc2c(O)cc(O)cc2O[C@@H]1c1cc(O)c(O)c(O)c1)c1cc(O)c(O)c(O)c1 [EGCG, Epigallocatechin gallate]",average decrease in growth of probiotics,"[1]; 5% inoculum, average over probiotic species",14.05%
same,"decrease in growth of probiotics, Max",[1]; maximum among probiotic species,31%
same,"decrease in growth of probiotics, Min",[1]; minimum among probiotic species,1.4%
same,natural killer T cells (NKT) subpopulation,splenocytes,no significant difference
same,activation of NK cells,splenocytes; vs control group,decrease
same,activation status of NKT cells,splenocytes; vs control group,no changes
same,numbers of natural killer cells (NK),splenocytes; vs control group,appeared to decrease
same,average growth inhibition of pathogens,"pathogenic bacteria; 5% inoculum, average over all pathogens",52.05%
same,"growth inhibition of pathogens, Max",pathogenic bacteria; maximum among pathogens,89.88%
same,"growth inhibition of pathogens, Min",pathogenic bacteria; minimum among pathogens,32.7%
